In US20230285405A1, “Pharmaceuticals for Treating or Preventing Nidoviruses and Picornaviruses” (priority 2020, published 2023):
Structures can show the parent of a compound that is named as a salt. Where two headings read alike, the source gives them in different places.

What was measured:
OC43 = assay: Drug screening: OC43 nucleoprotein staining in infected A549-mRuby cells; assay type: cell-based, human beta coronavirus OC43; details: for activity at 10 µM: Betacoronavirus 1, OC43, 96 h
Method: A549-mRuby cells were seeded (3,000 cells per well) in nine 384-well plates using Multidrop combi. Cells were seeded in a final volume of 30 μl with DMEM+10% BCS. The following day, 20 μl of OC43 were added (MOI 0.3) and incubated at 33° C., 5% CO2 for 1 hour. 50 nl from the Selleck FDA-approved drug library (cat #L1300, Selleck) were added (1:1,000 dilution). Two columns (32 wells) were left uninfected and two columns were treated with DMSO and virus (no drug control). Cells were imaged using the IncuCyte S3 to measure cell numbers at day 0. Cells were incubated for 4 days at 33° C., 5% CO2 and were stained for OC43 nucleoprotein. All the following steps were performed at room temperature. Cells were fixed in 50 μl 4% PFA/PBS for 15 min, blocked with 50 μl 10% BSA+0.5% Triton X-100 in PBS for 30 minutes, stained with 50 μl anti-OC43 (cat #MAB9013, Milipore) diluted 1:2,000 in 2% BSA+0.1% Triton X-100 in PBS for 1 hour, washed with 50 μl PBS three times, stained with anti-mouse-AlexaFluor488 diluted 1:1,000 in 2% BSA+0.1% Triton X-100 in PBS for 1 hour, washed with 50 μl PBS three times and imaged on the IncuCyte S3 (day 4). The screen was performed twice.
(§1) The following parameters were extracted from the images: number of cells at day 0, number of cells at day 4 and total OC43 staining intensity at day 4. For analysis, OC43 staining intensity was normalized to the number of cells in the well and further normalized to the mean of the no drug controls, which was set to 100. […] For each plate, a drug was considered as a putative hit if it reduced OC43 staining by over 3 standard deviations from the mean of the no drug controls. Drugs were considered hits if they were not toxic and reduced OC43 staining by over 3 standard deviations in both repeats.
(§2) A library of 1,900 clinically used drugs was screened, the drugs either approved for human use or having extensive safety data in humans (Phase 2 or 3 clinical trials), for their ability to inhibit OC43 infection of the human lung epithelial cell line A549 (expressing an H2B-mRuby nuclear reporter). One day after plating, cells were infected at an MOI of 0.3, incubated at 33° C. for 1 hour and drugs were added to a final concentration of 10 μM. Cells were then incubated at 33° C. for 4 days, fixed and stained for the presence of the viral nucleoprotein. The cells were imaged at day 0 (following drug addition) and day 4 (after staining) to determine the drugs effect on cell growth and OC43 infection.

A549-mRuby cells = assay: Drug screening: effect on cell growth (cell number day 4 / day 0); details: 10 μM drug; for Growth_1: number of cells at day 4 divided by number of cells at day 0 / toxic_1: repeat #1; for Growth_2: number of cells at day 4 divided by number of cells at day 0 / toxic_2: repeat #2
Method: A549-mRuby cells were seeded (3,000 cells per well) in nine 384-well plates using Multidrop combi. Cells were seeded in a final volume of 30 μl with DMEM+10% BCS. The following day, 20 μl of OC43 were added (MOI 0.3) and incubated at 33° C., 5% CO2 for 1 hour. 50 nl from the Selleck FDA-approved drug library (cat #L1300, Selleck) were added (1:1,000 dilution). Two columns (32 wells) were left uninfected and two columns were treated with DMSO and virus (no drug control). Cells were imaged using the IncuCyte S3 to measure cell numbers at day 0. Cells were incubated for 4 days at 33° C., 5% CO2 and were stained for OC43 nucleoprotein. All the following steps were performed at room temperature. […] The screen was performed twice.
as §1, §2

[1] = 10 μM drug, MOI 0.3, 4 days, OC43 staining normalized to no-drug controls, mean of the two screen repeats, read-out: OC43_mean
[2] = 10 μM drug, MOI 0.3, 4 days, normalized to no-drug controls in the same plate, repeat #1, read-out: OC43_1: % staining of OC43 in screen repeat #1
[3] = 10 μM drug, MOI 0.3, 4 days, normalized to no-drug controls in the same plate, repeat #2, read-out: OC43_2: % staining of OC43 in screen repeat #2
[4] = 10 μM drug, MOI 0.3, 4 days, OC43 staining normalized to no-drug controls, mean of the two screen repeats
[5] = 10 μM drug, MOI 0.3, 4 days, normalized to no-drug controls in the same plate, repeat #1
[6] = 10 μM drug, MOI 0.3, 4 days, normalized to no-drug controls in the same plate, repeat #2

| SMILES | hit_1 (OC43; 10 μM drug, repeat #1) | hit_2 (OC43; 10 μM drug, repeat #2) | activity at 10 µM (OC43; [1]) [%] | activity at 10 µM (OC43; [2]) [%] | activity at 10 µM (OC43; [3]) [%] | Growth_1: number of cells at day 4 divided by number of cells at day 0 (A549-mRuby cells) | toxic_1 (A549-mRuby cells) | Growth_2: number of cells at day 4 divided by number of cells at day 0 (A549-mRuby cells) | toxic_2 (A549-mRuby cells) | OC43_mean (OC43; [4]) [%] | OC43_1: % staining of OC43 in screen repeat #1 (OC43; [5]) [%] | OC43_2: % staining of OC43 in screen repeat #2 (OC43; [6]) [%] | activity at 10 µM (OC43; read-out: OC43_mean) [%] | Growth_1: number of cells at day 4 divided by number of cells at day 0 (A549-mRuby cells; hydrochloride) | Growth_2: number of cells at day 4 divided by number of cells at day 0 (A549-mRuby cells; hydrochloride) | OC43_1: % staining of OC43 in screen repeat #1 (OC43; 10 μM drug, MOI 0.3, 4 days, normalized to no-drug controls in the same plate, repeat #1, ditosylate monohydrate) [%] | Growth_1: number of cells at day 4 divided by number of cells at day 0 (A549-mRuby cells; ditosylate monohydrate) | Growth_2: number of cells at day 4 divided by number of cells at day 0 (A549-mRuby cells; ditosylate monohydrate) |
| --- | --- | --- | --- | --- | --- | --- | --- | --- | --- | --- | --- | --- | --- | --- | --- | --- | --- | --- |
| CC(C)(O)CNc1nc(Nc2ccnc(C(F)(F)F)c2)nc(-c2cccc(C(F)(F)F)n2)n1 [Enasidenib (AG-221), Enasidenib] | 1 | 1 | 26.1 | 23.3 | 29 | 5.2 | 0 | 4.8 | 0 |  |  |  |  |  |  |  |  |  |
| CCC(=O)O[C@H]1[C@H](O[C@@H]2[C@@H](C)[C@H](O[C@H]3C[C@@](C)(OC)[C@@H](O)[C@H](C)O3)[C@@H](C)C(=O)O[C@H](CC)[C@@](C)(O)[C@H](O)[C@@H](C)C(=O)[C@H](C)C[C@@]2(C)O)O[C@H](C)C[C@@H]1N(C)C [Erythromycin estolate] | 1 | 1 | 20.1 | 24.2 | 15.9 | 4.5 | 0 | 4.8 | 0 |  |  |  |  |  |  |  |  |  |
| CC[C@H]1OC(=O)[C@H](C)[C@@H](O[C@H]2C[C@@](C)(OC)[C@@H](O)[C@H](C)O2)[C@H](C)[C@@H](O[C@@H]2O[C@H](C)C[C@H](N(C)C)[C@H]2O)[C@](C)(O)C[C@@H](C)C(=O)[C@H](C)[C@@H](O)[C@]1(C)O.N#CS [Erythromycin thiocyanate] | 1 | 1 |  |  |  | 4.1 | 0 | 4.6 | 0 | 58.7 | 50.6 | 66.8 |  |  |  |  |  |  |
| C#C[C@]1(O)CC[C@H]2[C@@H]3CCC4=CC(=O)CC[C@@H]4[C@H]3C(=C)C[C@@]21CC [Etonogestrel] | 1 | 1 | 44.3 | 47.8 | 40.7 | 4.3 | 0 | 4.3 | 0 |  |  |  |  |  |  |  |  |  |
| CC1(C)O[C@@H]2C[C@H]3[C@@H]4C[C@H](F)C5=CC(=O)C=C[C@]5(C)[C@@]4(F)[C@@H](O)C[C@]3(C)[C@]2(C(=O)CO)O1 [Fluocinolone Acetonide] | 1 | 1 | 45.5 | 38.9 | 52.2 | 3.5 | 0 | 4.0 | 0 |  |  |  |  |  |  |  |  |  |
| CCC(=O)O[C@]1(C(=O)SCF)[C@H](C)C[C@H]2[C@@H]3C[C@H](F)C4=CC(=O)C=C[C@]4(C)[C@@]3(F)[C@@H](O)C[C@@]21C [Fluticasone propionate] | 1 | 1 |  |  |  | 3.8 | 0 | 4.2 | 0 | 48.8 | 48.4 | 49.2 |  |  |  |  |  |  |
| COCCCC/C(=N\OCCN)c1ccc(C(F)(F)F)cc1 [Fluvoxamine maleate] | 1 | 1 |  | 22.7 | 38.9 | 5.4 | 0 | 4.5 | 0 |  |  |  | 30.8 |  |  |  |  |  |
| COc1cc2ncnc(Nc3ccc(F)c(Cl)c3)c2cc1OCCCN1CCOCC1 [Gefitinib (ZD1839), Gefitinib] |  |  |  |  |  | 3.4 |  | 3.7 |  | 35.5 | 39.7 | 31.3 |  |  |  |  |  |  |
| COc1cc2ncnc(Nc3ccc(F)c(Cl)c3)c2cc1OCCCN1CCOCC1 [Gefitinib hydrochloride] | 1 | 1 | 23.9 | 20 | 27.8 |  | 0 |  | 0 |  |  |  |  | 3.5 | 3.3 |  |  |  |
| N=C(N)N/N=C/c1c(Cl)cccc1Cl [Guanabenz Acetate] | 1 | 1 | 34.6 | 31.1 | 38.1 | 5.3 | 0 | 4.4 | 0 |  |  |  |  |  |  |  |  |  |
| CCN(CCO)CCCC(C)Nc1ccnc2cc(Cl)ccc12 (centres unmarked) [Hydroxychloroquine Sulfate] | 1 | 1 | 16.2 | 17.8 | 14.6 | 5.1 | 0 | 4.9 | 0 |  |  |  |  |  |  |  |  |  |
| CS(=O)(=O)CCNCc1ccc(-c2ccc3ncnc(Nc4ccc(OCc5cccc(F)c5)c(Cl)c4)c3c2)o1.Cc1ccc(S(=O)(=O)O)cc1.Cc1ccc(S(=O)(=O)O)cc1 [Lapatinib (GW-572016) Ditosylate] | 1 | 1 |  |  |  | 5.0 | 0 | 5.9 | 0 | 24.8 | 17.6 | 32.0 |  |  |  |  |  |  |
| CS(=O)(=O)CCNCc1ccc(-c2ccc3ncnc(Nc4ccc(OCc5cccc(F)c5)c(Cl)c4)c3c2)o1 [Lapatinib ditosylate monohydrate] | 1 | 1 | 16.6 |  | 9.5 |  | 0 |  | 0 |  |  |  |  |  |  | 23.8 | 4.2 | 4.2 |
| COc1ccc(CN2CCN(C(c3ccc(F)cc3)c3ccc(F)cc3)CC2)c(OC)c1OC.Cl.Cl [Lomerizine 2HCl] | 1 | 1 |  |  |  | 4.7 | 0 | 5.3 | 0 | 39.9 | 56.5 | 23.3 |  |  |  |  |  |  |
| CNCCCC12CCC(c3ccccc31)c1ccccc12 [Maprotiline HCl] | 1 | 1 | 26 | 27 | 25.1 | 3.5 | 0 | 3.1 | 0 |  |  |  |  |  |  |  |  |  |
